Assay [1] relates to Rodentolepis nana. Description: Anthelmintic activity against Hymenolepis nana infected in mouse assessed as reduction in worm burden at 100 mg/kg administered bid for 3 days relative to control. Type of assay: functional. On the set-up: scale not given: the % may be the effect or the level left.
Assay [2] has as its system Rodentolepis nana. Description: Anthelmintic activity against Hymenolepis nana infected in mouse assessed as reduction in worm burden at 25 mg/kg administered bid for 3 days relative to control. The assay is classed as functional. More on the design: scale not given: the % may be the effect or the level left.
Assay [3] concerns Rodentolepis nana. Description: Anthelmintic activity against Hymenolepis nana infected in mouse assessed as reduction in worm burden at 10 mg/kg administered bid for 3 days relative to control. The assay is classed as functional, organism-based. On the set-up: dose 10 mg/kg.
Assay [4] deals with Rodentolepis nana. Description: Anthelmintic activity against Hymenolepis nana infected in mouse assessed as reduction in worm burden at 50 mg/kg administered bid for 3 days relative to control. Type of assay: functional. On the set-up: scale not given: the % may be the effect or the level left.
Assay [5] relates to Rodentolepis nana. Description: Anthelmintic activity against Hymenolepis nana infected in mouse assessed as reduction in worm burden at 300 mg/kg administered bid for 3 days relative to control. Type of assay: functional. More on the design: scale not given: the % may be the effect or the level left.

The source made the active and inactive calls. The rule behind the calls is not given here.

As to `CCCC(C)Oc1ccc(Nc2cc(C)nc3ccc4nc[nH]c4c23)cc1OC(C)CCC` (stereo not given), the Activity with Rodentolepis nana [1] worked out at 100%; in the assay with Rodentolepis nana [2] it was 92%; in the assay on Rodentolepis nana [4], 100%. In addition, the outcome with Rodentolepis nana [3] was inactive.

Turning to `Cc1cc(Nc2ccc(N3CCN(Cc4ccccc4)CC3)c(Cl)c2)c2c(ccc3nc[nH]c32)n1`, the Activity in the assay on Rodentolepis nana [1] came out at 100%; with Rodentolepis nana [2], 77%; with Rodentolepis nana [4] it was 100%. In addition, the outcome in the assay on Rodentolepis nana [3] was inactive.

Turning to `COc1cc(Nc2cc(C)nc3ccc4nc[nH]c4c23)c(OC)cc1Cl`, the Activity in the assay with Rodentolepis nana [1] is 100%; with Rodentolepis nana [2] it was 100%; in the assay on Rodentolepis nana [4], 72%. In addition, the outcome with Rodentolepis nana [3] was inactive.

On to `COc1ccc(CNc2cccc(Nc3cc(C)nc4ccc5nc[nH]c5c34)c2)cc1`, for which the Activity in the assay on Rodentolepis nana [5] is reported as 60%. The outcome in the assay on Rodentolepis nana [1] was inactive.

In the case of `CCCCc1ccc(Nc2cc(-c3ccccc3)nc3ccc4nc[nH]c4c23)cc1`, the Activity in the assay on Rodentolepis nana [5] turned out to be 69%. For the same compound, in the assay with Rodentolepis nana [1], the outcome was inactive.

Consider `CCCCOc1cc(Nc2cc(C)nc3ccc4nc[nH]c4c23)c(OCCCC)cc1Cl`, for which the values for the Activity with Rodentolepis nana [1], in the assay on Rodentolepis nana [2] and in the assay on Rodentolepis nana [4] were 100%, 74% and 84%, respectively. The result with Rodentolepis nana [3] was inactive.

In the case of `Cc1cc(Nc2cccc(C(F)(F)F)c2)c2c(ccc3nc[nH]c32)n1`, the Activity in the assay with Rodentolepis nana [5] is on record as 100%. The outcome in the assay on Rodentolepis nana [1] was inactive.

For `COc1ccc(Nc2cc(C)nc3ccc4nc(C)[nH]c4c23)cc1`, in the assay on Rodentolepis nana [5], the Activity is on record as 100%. The outcome with Rodentolepis nana [1] was inactive.

For `CC(=O)c1ccc(Nc2cc(C)nc3ccc4nc[nH]c4c23)cc1`, the Activity is listed as 100% with Rodentolepis nana [1], 56% in the assay with Rodentolepis nana [2] and 100% with Rodentolepis nana [4]. Besides, the outcome in the assay with Rodentolepis nana [3] was inactive.

As to `CSc1ccccc1Nc1cc(C)nc2ccc3nc[nH]c3c12`, the Activity with Rodentolepis nana [5] is recorded as 93%. Further, the result with Rodentolepis nana [1] was inactive.

Regarding `Cc1cc(Nc2ccc(OCCC(C)C)c(OCCC(C)C)c2)c2c(ccc3nc[nH]c32)n1`, the Activity is recorded as 100% in the assay on Rodentolepis nana [1], 67% with Rodentolepis nana [2] and 100% in the assay on Rodentolepis nana [4]. Moreover, in the assay on Rodentolepis nana [3], the result was inactive.

Consider `Cc1cc(Nc2cccc(Nc3ccccc3)c2)c2c(ccc3nc[nH]c32)n1`, for which the Activity in the assay on Rodentolepis nana [5] is 81%. Further, in the assay on Rodentolepis nana [1], the result was inactive.

`Cc1cc(Nc2ccccc2-c2ccccc2)c2c(ccc3nc[nH]c32)n1`: the Activity with Rodentolepis nana [5] stood at 100%. Also, in the assay on Rodentolepis nana [1], the result was inactive.

Consider `Cc1cc(Nc2ccc(OCC(C)C)c(OCC(C)C)c2)c2c(ccc3nc[nH]c32)n1`, for which the Activity in the assay on Rodentolepis nana [1] is given as 100%; with Rodentolepis nana [2], 77%; in the assay on Rodentolepis nana [4] it was 78%. For the same compound, the result in the assay on Rodentolepis nana [3] was inactive.

Take `Cc1cc(Nc2ccc(/N=N\c3ccccc3)cc2)c2c(ccc3nc[nH]c32)n1`: the Activity with Rodentolepis nana [5] is on record as 100%. Further, in the assay with Rodentolepis nana [1], the result was inactive.

`CCCCOc1ccc(Nc2cc(C)nc3ccc4[nH]cnc4c23)cc1`: the Activity in the assay on Rodentolepis nana [5] is listed as 100%. Moreover, the outcome in the assay on Rodentolepis nana [1] was inactive.

Take `CCCCCCOc1ccc(C(=N)N(CCCC)CCCC)c2ccccc12` [BUNAMIDINE]: the Activity in the assay with Rodentolepis nana [1] is given as 100%; in the assay with Rodentolepis nana [2] it was 30%; with Rodentolepis nana [4], 59%. In the assay on Rodentolepis nana [3], the outcome was inactive.

For `CCCCc1ccc(Nc2cc(C)nc3ccc4[nH]cnc4c23)cc1`, the Activity with Rodentolepis nana [5] amounted to 100%. For the same compound, the outcome in the assay with Rodentolepis nana [1] was inactive.

Consider `Cc1ccc(Nc2cc(C)nc3ccc4nc[nH]c4c23)cc1`, for which the Activity with Rodentolepis nana [5] turned out to be 100%. In addition, in the assay on Rodentolepis nana [1], the result was inactive.

On to `Cc1ccc(Cl)c(Nc2cc(C)nc3ccc4nc[nH]c4c23)c1`, for which the Activity with Rodentolepis nana [5] is 98%. Moreover, the result in the assay on Rodentolepis nana [1] was inactive.

As for `Cc1cc(Nc2ccc(N3CCN(C)CC3)c(Cl)c2)c2c(ccc3nc[nH]c32)n1`, the Activity in the assay with Rodentolepis nana [5] was found to be 100%. Also, the outcome in the assay with Rodentolepis nana [1] was inactive.

In the case of `Cc1cc(Nc2cccc(Nc3ccc(N4CCCCC4)nc3)c2)c2c(ccc3nc[nH]c32)n1`, in the assay on Rodentolepis nana [5], the Activity amounted to 100%. For the same compound, the outcome in the assay on Rodentolepis nana [1] was inactive.

For the origin of these results see ChEMBL document CHEMBL3244292, “Imidazo[4,5-f]quinolines. 2. A series of 9-(substituted amino)imidazo[4,5-f]quinolines as antitapeworm agents” (1977).
